Test results published in ChEMBL document CHEMBL1139770, “Non-nucleoside inhibitors of the measles virus RNA-dependent RNA polymerase complex activity: Synthesis and in vitro evaluation” (Bioorg Med Chem Lett, 2007).

Tests used:
[1] = Cytotoxicity against Vero cells by MTT assay; assay type: cell-based; conditions: chlorocebus sabaeus
Measles morbillivirus [2] = assay: Antiviral activity against Measles virus Alaska assessed as inhibition of viral-induced cytopathicity; assay type: functional, organism-based
Measles morbillivirus [3] = assay: Antiviral activity against Measles virus Alaska assessed as virus titer reduction; assay type: functional
[4] = Cytotoxicity against Vero cells by Trypan blue exclusion assay; assay type: cell-based; conditions: chlorocebus sabaeus
[5] = Ratio of CC50 for Vero cells to IC50 for Measles virus Alaska; assay type: functional

Compound | EC50 (Measles morbillivirus [2]) | CC50 [1] | Activity (Measles morbillivirus [3]) | CC50 [4] | Ratio CC50/IC50 [5]
COc1ccc(Br)c(C(=O)Nc2ccc(S(=O)(=O)N3CCCC3)cc2)c1 | > 75 µM | > 300 µM |  |  | 
Cn1nc(C(F)(F)F)cc1C(=O)Nc1ccc(S(=O)(=O)n2ccc3ccccc32)cc1 |  | 13 µM |  |  | 
O=C(Nc1ccc(S(=O)(=O)N2CCCC2)cc1)c1ccccc1C(F)(F)F | > 75 µM | > 300 µM |  |  | 
O=C(Nc1ccc(S(=O)(=O)N2CCCC2)cc1)c1ccc(CCl)cc1 |  | 11 µM |  |  | 
O=C(Nc1ccc(S(=O)(=O)N2CCCC2)cc1)c1ccc(C(F)(F)F)cc1 | 48 µM | > 300 µM |  |  | 
O=C(Nc1ccc(S(=O)(=O)N2CCCC2)cc1)c1ccc(Br)cc1 |  | 59 µM |  |  | 
Cn1nc(C(F)(F)F)cc1C(=O)Nc1ccc(S(=O)(=O)N2CCCC2)cc1OC(=O)c1cc(C(F)(F)F)nn1C |  | 14 µM |  |  | 
O=C(Nc1ccc(S(=O)(=O)N2CCCC2)cc1)c1ccco1 | > 75 µM | > 300 µM |  |  | 
Cn1nc(C(F)(F)F)cc1C(=O)Nc1ccc(S(=O)(=O)N2CCCC2)cc1NC(=O)c1cc(C(F)(F)F)nn1C |  | 13 µM |  |  | 
O=C(Nc1ccc(S(=O)(=O)N2CCCC2)cc1)c1cc(C(F)(F)F)ccc1F | ≥ 75 µM | 76 µM |  |  | 
O=C(Nc1ccc(S(=O)(=O)N2CCCC2)cc1)c1nc2ccccc2s1 | > 75 µM | > 300 µM |  |  | 
O=C(Nc1ccc(S(=O)(=O)N2CCCC2)cc1)c1nccn1-c1ccccc1C(F)(F)F | 65 µM | > 300 µM |  |  | 
Cn1nc(C(F)(F)F)cc1COc1ccc(S(=O)(=O)N2CCCC2)cc1 | > 75 µM | > 300 µM |  |  | 
Nc1ccc(C(=O)Nc2ccc(S(=O)(=O)N3CCCC3)cc2)c(Cl)c1 | > 75 µM | > 300 µM |  |  | 
O=C(Nc1ccc(S(=O)(=O)N2CCCC2)cc1)c1ccc(C(F)(F)F)cc1[N+](=O)[O-] | > 75 µM | > 300 µM |  |  | 
O=C(Nc1ccc(S(=O)(=O)N2CCCC2)cc1)c1cccs1 | > 75 µM | > 300 µM |  |  | 
O=C(Nc1ccc(S(=O)(=O)N2CCCC2)cc1)c1ccc([N+](=O)[O-])cc1Cl | > 75 µM | > 300 µM |  |  | 
O=C(Nc1ccc(S(=O)(=O)N2CCCC2)cc1)c1ccc(F)cc1 | > 75 µM | > 300 µM |  |  | 

More lines, main results first:

EC50 (Measles morbillivirus [2]) | Compound | CC50 [1] | Activity (Measles morbillivirus [3]) | CC50 [4] | Ratio CC50/IC50 [5]
25 µM | Cn1nc(C(C)(C)C)cc1C(=O)Nc1ccc(S(=O)(=O)N2CCCC2)cc1 | 140 µM |  |  | 
> 75 µM | Cn1nc(C(F)(F)F)cc1C(=O)Nc1ccc(S(=O)(=O)N2CCCCC2C(=O)O)cc1 (stereo unspecified) | > 300 µM |  |  | 
< 2.3 µM | Cn1nc(C(F)(F)F)cc1C(=O)Nc1ccc(S(=O)(=O)N2CCCCC2)cc1 | > 300 µM | 0.012 µM | 199 µM | 16500
43 µM | Cn1nc(C(F)(F)F)cc1C(=O)Nc1ccc(S(=O)(=O)N2CCOCC2)cc1 | > 300 µM |  |  | 
≥ 75 µM | Cn1nc(C(F)(F)F)cc1C(=O)Nc1ccc(S(=O)(=O)N2CCCC2)cc1N | > 300 µM |  |  | 
> 75 µM | Cc1cc(C(=O)Nc2ccc(S(=O)(=O)N3CCCC3)cc2)n(C)n1 | > 300 µM |  |  | 
> 75 µM | Cn1nc(C(F)(F)F)cc1CNc1ccc(S(=O)(=O)N2CCCC2)cc1 | > 300 µM |  |  | 
28 µM | Cn1nc(C(F)(F)F)cc1C(=O)Nc1ccc(S(=O)(=O)N2CCNCC2)cc1 | 126 µM |  |  | 
> 75 µM | Cc1nc(C(F)(F)F)ccc1C(=O)Nc1ccc(S(=O)(=O)N2CCCC2)cc1 | > 300 µM |  |  | 
41 µM | Cn1nc(C(F)(F)F)cc1C(O)Cc1ccc(S(=O)(=O)N2CCCC2)cc1 (stereo unspecified) | > 300 µM |  |  | 
14 µM | Cn1nc(C(F)(F)F)cc1C(=O)Nc1ccc(S(=O)(=O)N2CCC[C@H]2C(=O)OCc2ccccc2)cc1 | 100 µM |  |  | 
> 75 µM | O=C(Nc1ccc(S(=O)(=O)N2CCCC2)cc1)c1cc(C(F)(F)F)nn1Cc1ccccc1 | 37 µM |  |  | 
23 µM | Cn1nc(C(F)(F)F)cc1C(=O)Nc1ccc(S(=O)(=O)N2CCC[C@H]2C(=O)O)cc1 | > 300 µM |  |  | 
> 75 µM | O=C(Nc1ccc(S(=O)(=O)N2CCCC2)cc1)c1cccc(C(F)(F)F)c1 | > 300 µM |  |  | 
> 75 µM | Cn1nc(C(F)(F)F)cc1C(=O)Nc1ccc(S(=O)(=O)N2CCCC2)cc1O | 288 µM |  |  | 
15.5 µM | Cn1nc(C(F)(F)F)cc1C(=O)Cc1ccc(S(=O)(=O)N2CCCC2)cc1 | > 300 µM |  |  | 
